# Experimental data as given in EP0093484A2, “Antibacterial monic acid derivatives” (BEECHAM GROUP PLC, priority 1982, dated 1983).
# Like-named read-outs stand apart in the source and are kept apart here.
# How the values were obtained:
# [1] = tested on: Strep. pyogenes R80/421-A; test: Human bacteria, MIC by serial dilution in nutrient agar; assay type: cell-based; details: nutrient agar with 5% chocolated horse blood, 18 hours at 37°C
# M. hyorhinis ATCC 23234 = test: Anti-mycoplasmal activity, MIC in Friis broth agarose; assay type: cell-based; details: Friis broth solidified with 0.9% agarose, 6 days incubation at 37°C
# [2] = tested on: M. suipneumoniae ATCC 25095; test: as above; assay type: cell-based; details: Friis broth solidified with 0.9% agarose, 6 days incubation at 37°C
# Staph. aureus Russell = test: Human bacteria, MIC by serial dilution in nutrient agar; assay type: cell-based; details: nutrient agar with 5% chocolated horse blood, 18 hours at 37°C
# P. mirabilis 889 = test: as above; assay type: cell-based; details: nutrient agar with 5% chocolated horse blood, 18 hours at 37°C
# M. suipneumoniae TAM 6N = test: Anti-mycoplasmal activity, MIC in Friis broth agarose; assay type: cell-based; details: Friis broth solidified with 0.9% agarose, 6 days incubation at 37°C
# Past. multocida PA1 = test: Veterinary bacteria, MIC by two fold serial dilution in agar
# Method: (§1) The activity of the compounds of the Examples against various organisms important in veterinary infections was determined using two fold serial dilutions in Diagnostic Sensitivity Test Agar inoculated with 10^4 organisms.
# M. hyorhinis ATCC 25021 = test: Anti-mycoplasmal activity, MIC in Friis broth agarose; assay type: cell-based; details: Friis broth solidified with 0.9% agarose, 6 days incubation at 37°C
# Bacillus subtilis 6633 = test: Human bacteria, MIC by serial dilution in nutrient agar; assay type: cell-based; details: nutrient agar with 5% chocolated horse blood, 18 hours at 37°C
# M. suipneumoniae UCD 1 = test: Anti-mycoplasmal activity, MIC in Friis broth agarose; assay type: cell-based; details: Friis broth solidified with 0.9% agarose, 6 days incubation at 37°C
# [3] = tested on: M. suipneumoniae J2206/183b; test: as above; assay type: cell-based; details: Friis broth solidified with 0.9% agarose, 6 days incubation at 37°C
# [4] = tested on: Pasteurella multocida 1633; test: Human bacteria, MIC by serial dilution in nutrient agar; assay type: cell-based; details: nutrient agar with 5% chocolated horse blood, 18 hours at 37°C
# Staph. aureus Oxford = test: as above; assay type: cell-based; details: Staph. aureus Oxford (human panel), nutrient agar with 5% chocolated horse blood, 18 hours at 37°C
# [5] = tested on: Corynebacterium pyogenes CY1; test: Veterinary bacteria, MIC by two fold serial dilution in agar
# Method: as §1
# [6] = tested on: M. suipneumoniae NCTC 10110; test: Anti-mycoplasmal activity, MIC in Friis broth agarose; assay type: cell-based; details: Friis broth solidified with 0.9% agarose, 6 days incubation at 37°C
# S. typhimurium S18 = test: Veterinary bacteria, MIC by two fold serial dilution in agar
# Method: as §1
# M. suipneumoniae HK(2) = test: Anti-mycoplasmal activity, MIC in Friis broth agarose; assay type: cell-based; details: Friis broth solidified with 0.9% agarose, 6 days incubation at 37°C
# [7] = tested on: M. bovigenitalium ATCC 14173; test: as above; assay type: cell-based; details: Friis broth solidified with 0.9% agarose, 6 days incubation at 37°C
# E. coli NCTC 10418 = test: Veterinary bacteria, MIC by two fold serial dilution in agar
# Method: as §1
# M. suipneumoniae NB12 = test: Anti-mycoplasmal activity, MIC in Friis broth agarose; assay type: cell-based; details: Friis broth solidified with 0.9% agarose, 6 days incubation at 37°C
# [8] = Streptococcus pyogenes, read-out: MIC
# [9] = Mesomycoplasma hyorhinis, ATCC23234, 144 h, read-out: MIC
# [10] = Mesomycoplasma hyopneumoniae, ATCC25095, 144 h, read-out: MIC
# [11] = Staphylococcus aureus, read-out: MIC
# [12] = Proteus mirabilis, read-out: MIC
# [13] = Mesomycoplasma hyopneumoniae, TAM6N, 144 h, read-out: MIC
# [14] = Pasteurella multocida, PA1, 18 h
# [15] = Mesomycoplasma hyorhinis, ATCC25021, 144 h, read-out: MIC
# [16] = Mesomycoplasma hyopneumoniae, UCD1, 144 h, read-out: MIC
# [17] = Mesomycoplasma hyopneumoniae, 144 h, read-out: MIC
# [18] = Mesomycoplasma hyopneumoniae, NCTC10110, 144 h, read-out: MIC
# [19] = Salmonella enterica, TYPHIMURIUM, 18 h
# [20] = Escherichia coli, NCTC10418, 18 h
Compound,"MIC [1, 8]",MIC (M. hyorhinis ATCC 23234; [9]),"MIC [2, 10]",MIC (Staph. aureus Russell; [11]),MIC (P. mirabilis 889; [12]),MIC (M. suipneumoniae TAM 6N; [13]),MIC (Past. multocida PA1; [14]),MIC (M. hyorhinis ATCC 25021; [15]),MIC (Bacillus subtilis 6633; read-out: MIC),MIC (M. suipneumoniae UCD 1; [16]),"MIC [3, 17]",MIC ([4]; read-out: MIC),MIC (Staph. aureus Oxford; [11]),"MIC ([5]; CY1, 18 h)","MIC [6, 18]",MIC (S. typhimurium S18; [19]),MIC (M. suipneumoniae HK(2); [17]),"MIC ([7]; 144 h, read-out: MIC)",MIC (E. coli NCTC 10418; [20]),MIC (M. suipneumoniae NB12; [17]),other results
1-(p-Methylsulfinylphenyl)ethyl monate A [Example 8],–,–,–,–,–,–,–,–,–,–,–,–,–,–,–,–,–,–,–,–,"MIC [1]: 2.0 µg/mL; MIC (M. hyorhinis ATCC 23234): 1.0 µg/mL; MIC [2]: 2.5 µg/mL; MIC (Staph. aureus Russell): 32 µg/mL; MIC (P. mirabilis 889): >128 µg/mL; MIC (M. suipneumoniae TAM 6N): 2.5 µg/mL; MIC (Past. multocida PA1; Past. multocida PA1, Diagnostic Sensitivity Test Agar, 18 hours at 37°C): 10 µg/mL; MIC (M. hyorhinis ATCC 25021): 1.0 µg/mL; MIC (Bacillus subtilis 6633): 4.0 µg/mL; MIC (M. suipneumoniae UCD 1): 2.5 µg/mL; MIC [3]: 2.5 µg/mL; MIC [4]: 8.0 µg/mL; MIC (Staph. aureus Oxford): 16 µg/mL; MIC ([5]; Corynebacterium pyogenes CY1, Diagnostic Sensitivity Test Agar, 18 hours at 37°C): >80 µg/mL; MIC [6]: 2.5 µg/mL; MIC (S. typhimurium S18; S. typhimurium S18, Diagnostic Sensitivity Test Agar, 18 hours at 37°C): >80 µg/mL; MIC (M. suipneumoniae HK(2)): 2.5 µg/mL; MIC [7]: 0.1 µg/mL; MIC (E. coli NCTC 10418; E. coli NCTC 10418 (veterinary panel), Diagnostic Sensitivity Test Agar, 18 hours at 37°C): >80 µg/mL; MIC (M. suipneumoniae NB12): 2.5 µg/mL"
"CSc1ccc(COC(=O)C=C(C)CC2OCC(CC3OC3C(C)C(C)O)C(O)C2O)cc1 (centres unmarked) [Example 1, p-Methylthiobenzyl monate A]",0.1 µg/mL,0.25 µg/mL,0.5 µg/mL,0.5 µg/mL,100 µg/mL,0.5 µg/mL,0.156 µg/mL,0.25 µg/mL,0.25 µg/mL,0.5 µg/mL,0.5 µg/mL,1 µg/mL,0.5 µg/mL,> 80 µg/mL,0.5 µg/mL,> 80 µg/mL,0.5 µg/mL,0.025 µg/mL,> 80 µg/mL,0.5 µg/mL,–
"CC(=CC(=O)OCc1ccc([S+](C)[O-])cc1)CC1OCC(CC2OC2C(C)C(C)O)C(O)C1O (centres unmarked) [Example 2, p- Methylsulphinylbenzyl monate A]",0.5 µg/mL,0.25 µg/mL,0.25 µg/mL,2.5 µg/mL,50 µg/mL,0.5 µg/mL,0.625 µg/mL,0.1 µg/mL,1 µg/mL,0.25 µg/mL,0.25 µg/mL,0.5 µg/mL,2.5 µg/mL,> 80 µg/mL,0.25 µg/mL,> 80 µg/mL,0.25 µg/mL,0.025 µg/mL,> 80 µg/mL,0.25 µg/mL,–
"CC(=CC(=O)OCc1ccc(S(C)(=O)=O)cc1)CC1OCC(CC2OC2C(C)C(C)O)C(O)C1O (centres unmarked) [Example 3, p-Methylsulphonylbenzyl monate A]",0.25 µg/mL,0.1 µg/mL,0.1 µg/mL,2.5 µg/mL,50 µg/mL,0.25 µg/mL,0.025 µg/mL,0.05 µg/mL,0.5 µg/mL,0.25 µg/mL,0.25 µg/mL,0.25 µg/mL,1 µg/mL,> 80 µg/mL,0.25 µg/mL,> 80 µg/mL,0.25 µg/mL,≤ 0.01 µg/mL,80 µg/mL,0.1 µg/mL,–
